The results in this text go back to ChEMBL document CHEMBL4118117, “Synthesis, biological evaluation, and molecular docking investigation of benzhydrol- and indole-based dual PPAR-γ/FFAR1 agonists” (Bioorg Med Chem Lett, 2018).

Molecules are shown by their SMILES. The source made the active and inactive calls. The rule behind the calls is not given here.

The target in assay [1] is T1, Peroxisome proliferator-activated receptor gamma (Homo sapiens) (UniProt P37231).
T1 sequence (whole entry): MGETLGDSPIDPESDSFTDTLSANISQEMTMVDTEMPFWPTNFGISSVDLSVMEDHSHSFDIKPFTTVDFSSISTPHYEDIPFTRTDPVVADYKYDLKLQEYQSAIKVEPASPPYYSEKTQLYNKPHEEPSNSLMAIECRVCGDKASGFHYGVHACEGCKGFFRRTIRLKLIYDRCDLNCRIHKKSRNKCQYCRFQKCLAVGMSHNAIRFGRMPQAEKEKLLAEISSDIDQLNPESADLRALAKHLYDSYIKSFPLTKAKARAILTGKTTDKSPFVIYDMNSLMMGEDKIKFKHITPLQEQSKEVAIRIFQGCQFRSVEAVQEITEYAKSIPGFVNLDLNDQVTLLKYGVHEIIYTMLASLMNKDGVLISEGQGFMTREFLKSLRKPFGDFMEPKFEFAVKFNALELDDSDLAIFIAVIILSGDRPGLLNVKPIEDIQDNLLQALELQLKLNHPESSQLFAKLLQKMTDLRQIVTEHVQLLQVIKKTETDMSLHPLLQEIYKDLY
Put plainly: Transactivation of recombinant human N-terminal GAL4-DBD fused PPARgamma LBD expressed in reporter cells at 30 uM measured after 24 hrs by luciferase reporter gene assay relative to rosiglitazone. Type of assay: cell-based. A general note: Reporter assays use an easily measured gene product as a stand-in for the process of interest.

The target of assay [2] is Free fatty acid receptor 1 (Homo sapiens, UniProt O14842). Description: Transactivation of recombinant human FFAR1 expressed in CHOK1 cells co-expressing Galpha15 assessed as increase in calcium flux measured after 20 secs for 100 secs by FLIPR assay. Type of assay: functional, cell-based. A general note: Calcium flux is commonly read through the fluorescence of an indicator in the cells.

Assay [3] deals with Mus musculus. Put plainly: Antihyperglycemic activity in established high fat diet-induced obese mouse assessed as reduction in blood glucose level at 10 mg/kg, iv administered once daily for 14 days measured at 1 hr post dose on day 7 and 14 during compound dosing. Type of assay: functional, organism-based.
The target of assay [4] is T1, Peroxisome proliferator-activated receptor gamma (Homo sapiens). Put plainly: Transactivation of recombinant human N-terminal GAL4-DBD fused PPARgamma LBD expressed in reporter cells at 30 uM measured after 24 hrs by luciferase reporter gene assay relative to control. The format is cell-based.
Assay [5] deals with T2, Peroxisome proliferator-activated receptor gamma (Homo sapiens, UniProt P37231).
T2 sequence (P37231 whole entry): T1 sequence (whole entry)
Description: Transactivation of recombinant human N-terminal GAL4-DBD fused PPARgamma LBD expressed in reporter cells measured after 24 hrs by luciferase reporter gene assay. The format is cell-based.

In assay [6] the test system is Mus musculus. Description: Antihyperglycemic activity in established high fat diet-induced obese mouse assessed as reduction in blood glucose level at 10 mg/kg, iv administered once daily for 14 days measured at 1 hr post dose on day 7 and 14 during compound dosing in presence of glimepride. The format is functional, organism-based.
For assay [7], the system named is Mus musculus. Description: Antihyperglycemic activity in established high fat diet-induced obese mouse assessed as reduction in body weight at 10 mg/kg, iv administered once daily for 14 days. The format is functional, organism-based.
Assay [8] concerns Mus musculus. Put plainly: Antihyperlipidemic activity in established high fat diet-induced obese mouse assessed as reduction in plasma triglyceride level at 10 mg/kg, iv administered once daily for 14 days measured at 1 hr post dose on day 7 and 14 during compound dosing by colorimetric method relative to rosiglitazone. Type of assay: functional.
The subject of assay [9] is Mus musculus. Description: Antihyperglycemic activity in established high fat diet-induced obese mouse assessed as reduction in blood glucose level at 10 mg/kg, iv administered once daily for 14 days measured at 1 hr post dose on day 7 and 14 during compound dosing in presence of rosiglitazone. The format is functional, organism-based.
Assay [10] relates to Mus musculus. Description: Antihyperglycemic activity in established high fat diet-induced obese mouse assessed as reduction in blood glucose level at 10 mg/kg, iv administered once daily for 14 days measured at 1 hr post dose on day 7 and 14 during compound dosing relative to rosiglitazone. Type of assay: functional.

Free fatty acid receptor 1, sequence (O14842 whole entry): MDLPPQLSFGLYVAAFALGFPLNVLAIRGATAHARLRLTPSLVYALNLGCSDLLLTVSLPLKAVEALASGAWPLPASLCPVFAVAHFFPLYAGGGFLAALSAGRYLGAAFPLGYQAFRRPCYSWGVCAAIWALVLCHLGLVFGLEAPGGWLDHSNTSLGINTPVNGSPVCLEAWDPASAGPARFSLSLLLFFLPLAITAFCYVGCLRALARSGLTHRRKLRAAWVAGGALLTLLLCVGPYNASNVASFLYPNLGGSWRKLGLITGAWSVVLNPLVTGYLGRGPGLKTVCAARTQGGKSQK

As a reminder, the EC50 is the concentration giving half of the maximal effect. Turning to `O=C1NC(=O)C(Cc2ccc(OCCOC(c3ccccc3)c3ccccc3)cc2)S1` (stereo not drawn), the Activity in [1] came out at 9.3%. The EC50 in assay [2] (read-out: EC50) came to 21.3 µM. For the same molecule, the result in assay [3] was Active. Moreover, the fold change (FC) in assay [4] is 4.

`O=C1NC(=O)C(Cc2ccc(OCCn3ccc4ccccc43)cc2)S1` (stereo not drawn): the Activity in [1] was found to be 130%. For the same molecule, the half-maximal effective concentration (EC50) in assay [2] (read-out: EC50) stood at 2.19 µM; in assay [5] it was 3.94 µM. In assay [3], the outcome was Active. Besides, in assay [4], the fold change (FC) was 56.1.

For the molecule `CN(CCOc1ccc(CC2SC(=O)NC2=O)cc1)c1ccccn1` (stereo not drawn), the result in assay [6] and in assay [7] was Active. In addition, in assay [4], the fold change (FC) came to 43.1.

On to `O=C1NC(=O)C(Cc2ccc(OCCn3cnc4ccccc43)cc2)S1` (stereo not drawn), for which, in assay [1], the Activity was 69.8%. Besides, the EC50 was found to be 4.31 µM in [2] (read-out: EC50) and 2.32 µM in assay [5]. Further, the fold change (FC) in assay [4] was 29.7.

Take `O=C1NC(=O)C(Cc2ccc(OCCOc3cccc4ccccc34)cc2)S1` (stereo not drawn): the Activity in assay [1] was found to be 13.3%. Moreover, the EC50 result in [2] is given as “Not Active”.

`O=C1NC(=O)C(Cc2ccc(OCCOC(c3ccccc3)c3ccc(Cl)cc3)cc2)S1` (stereo not drawn): the Activity in [1] was found to be 10.7%. For the same molecule, the EC50 entry in [2] was “Not Active”.

For `O=C1NC(=O)C(Cc2ccc(OCCn3c(-c4ccccc4)cc4ccccc43)cc2)S1` (stereo not drawn), the Activity in assay [1] turned out to be 34.9%. In addition, the 50% effective concentration (EC50) result in [2] is listed as “Not Active”.

`COc1ccc(C(OCCOc2ccc(CC3SC(=O)NC3=O)cc2)c2ccccc2)cc1` (stereo not drawn): in assay [1], the Activity turned out to be 12.1%. Moreover, the EC50 in assay [2] (read-out: EC50) was found to be 17.8 µM. Also, the “fold change (FC)” value in assay [8] is recorded as 5.5. For the same molecule, the outcome in assay [3] was Active.

Consider `CCCCC/C=C/C/C=C/C/C=C/CCCCC(=O)O`, for which, in assay [2] (read-out: EC50), the EC50 came out at 0.24 µM.

As for `CCC1=C(C)CN(C(=O)NCCc2ccc(S(=O)(=O)NC(=O)N[C@H]3CC[C@H](C)CC3)cc2)C1=O`, the outcome in assay [9] and in assay [7] was Active.

Turning to `O=C1NC(=O)C(Cc2ccc(OCCOC(c3ccccc3)c3ccc(C(F)(F)F)cc3)cc2)S1` (stereo not drawn), the result in assay [1] was inactive. In assay [2] (read-out: EC50), the EC50 came to 11.3 µM. In addition, the fold change (FC) in assay [4] is greater than 0.01.

For the molecule `Cc1ccccc1C(OCCOc1ccc(CC2SC(=O)NC2=O)cc1)c1ccccc1` (stereo not drawn), the Activity in assay [1] is 4.4%. Moreover, the EC50 entry in assay [2] is “Not Active”.

For `O=C1NC(=O)C(Cc2ccc(OCCn3ccc4ccc(Cl)cc43)cc2)S1` (stereo not drawn), in [1], the Activity was 83.7%. The 50% effective concentration (EC50) in [2] (read-out: EC50) was determined as 5.06 µM; in assay [5], 4.51 µM. Also, the “fold change (FC)” value in [10] worked out at 6; in [8], 3.5. Further, the outcome in assay [3] and in [7] was Active.

For the molecule `O=C1NC(=O)C(Cc2ccc(OCCn3c(CO)nc4ccccc43)cc2)S1` (stereo not drawn), the Activity in assay [1] was 39.5%. Also, in assay [2], the EC50 entry is listed as “Not Active”.
